In a melting point compilation (Tetko et al.; mined from patent text by program, amines drawn as free bases though some values may be those of a salt):

Structure (SMILES)	melting point
O=C(O)Cc1c(C(=O)c2cccc(OCc3ccccc3)c2)[nH]c2cc(Cl)ccc12	174 to 177 °C
C=CCn1cc(Cl)cnc1=O	130 to 131 °C
CCc1cc(-c2ccc(-c3ccn(C)n3)cc2)ccc1OC	167 to 170 °C
CC(C)c1nc(N(C(C)C)C(C)C)c([N+](=O)[O-])c(N(C(C)C)C(C)C)n1	45 °C
COc1ccc(C(Cl)=C(C=O)c2ccc(OC)c(OC)c2)cc1OC	183 to 184 °C
CC(O)Cn1cnc2c(N)nc3ccccc3c21 (centres undefined)	216 to 221 °C
O=[N+]([O-])c1cc(CO)cc([N+](=O)[O-])c1	89 °C
COc1ccc2c(c1)c(Cc1cc(=O)n(C3CCCCC3)[nH]1)c(C)n2C(=O)c1ccc(Cl)cc1	187 to 188 °C
CC(C)(C)c1cc(CBr)ccc1O[Si](C)(C)C(C)(C)C	54 to 55 °C
O=[N+]([O-])c1ccc(Nc2ccccn2)c(C(F)(F)F)c1	83 to 84 °C
Cc1cccc(C(C#N)N2CCOCC2)c1 (centres undefined)	59 to 60 °C
CCCC[Si](C)(C)CCSCCNC(=O)n1cc(F)c(=O)[nH]c1=O	71 to 72 °C
Cc1c(NC(=O)CC(C)(C)C)c(C)c2c(c1-c1nccs1)OCC2c1ccc(C(C)C)cc1 (centres undefined)	164 to 166 °C
COC(=O)c1cc(Cl)c(Oc2ccc(OC)c(Cc3ccc(F)cc3)c2)c(Cl)c1	108 to 110 °C
CCCCCS(=O)(=O)NC(=O)/C=C/c1ccc(OCCOC)cc1Oc1ncc(NC(C)=O)cc1C	188 °C
NC(=O)N1CCC(c2nn(-c3ccc(C(F)(F)F)cc3)c3cc(F)ccc23)CC1	148 to 150 °C
N#Cc1ccc(CCc2ccc(OCc3ccc4ccccc4n3)cc2)cc1	156 to 158 °C
COc1ccc2c(c1)CCC[C@H]2NC(=O)c1cccc(Cl)c1O	111 to 113 °C
Cc1c2c(cn1C)N(C)C(=O)C(OC(=O)c1ccccc1)N=C2c1ccccc1Cl (centres undefined)	228 to 229 °C
CC(=O)OCC1OC(n2c(Cl)nc3cc(Cl)c(Cl)cc32)C(O)C1O (centres undefined)	82 to 87 °C
CC(C)(C)C(=O)C(Oc1ccccc1)C(=O)Nc1ccc(Cl)cc1Cl (centres undefined)	112 to 114 °C

Structure (SMILES)	melting point
Cc1cc2[nH]c(=O)c3cnccc3n2n1	> 300 °C
O=C(O)c1cccc2c1NCCC2C(=O)O (centres undefined)	215 to 216 °C
CNc1ccc(Cl)cc1	72 to 74 °C
CC(C)CC(NC(=O)OCc1ccccc1)C(=O)NC(Cc1ccc2ccccc2c1)C(=O)CSCc1ccco1 (centres undefined)	103 to 104 °C
C(=C(\C(=C\c1ccccc1)c1ccccc1)c1ccccc1)/c1ccccc1	183 to 184 °C
COC(=O)C1CCN(S(=O)(=O)c2ccc(Cl)c(COc3cccc4c(-n5ccnc5)cc(C)nc34)c2Cl)C1 (centres undefined)	180 °C
COc1cc2c(c(OC)c1/C=C/c1ccc(CN)cc1)C(C)(C)CCC2(C)C	59 to 60 °C
COc1ccc2c(c1)cc(C(=O)c1cc3ccccc3n1S(=O)(=O)c1ccccc1)n2S(=O)(=O)c1ccccc1	205 °C
C[C@@H]1Cc2ccsc2[C@H](C)N1CCCCNS(=O)(=O)c1ccc(NS(C)(=O)=O)cc1 (relative stereo)	134 to 136 °C
CC(=O)NC1(c2ccccc2)CCN(CCC(CN2C(=O)c3ccccc3C2=O)c2ccc(Cl)c(Cl)c2)CC1 (centres undefined)	83 to 85 °C
Cc1cc2c(-c3cccc(/C=C/c4nnn[nH]4)c3)c(CC(=O)Nc3ccc(F)cc3C(F)(F)F)c(=O)oc2cc1Cl	216 to 218 °C
COc1ccc(N2C(=O)CCN(C)c3ccc(Cl)cc32)cc1	144 to 145 °C
COc1ccc(C2CNCc3c2ccc(OC)c3C)cc1OC (centres undefined)	128 to 129 °C
CCOC(=O)N1Cc2ccnnc2C(NN=C(C)C)C1 (centres undefined)	171 to 174 °C
CC(=O)NCC(=O)N1CC1C#N (centres undefined)	102 to 104 °C
CC(=O)c1cnc(C(=O)C(C)(C)C)cn1	41 to 42.5 °C
COc1cc(C2c3cc4c(cc3C(NC(=O)CNCCN(C)C)C3COC(=O)C23)OCO4)cc(OC)c1O (centres undefined)	230 °C
CN1Cc2c(C(=O)OC(C)(C)C)ncn2-c2cccc(I)c2C1=O	203 to 204 °C
CCCCc1ncc(C=C2C(=O)Nc3ccccc32)n1Cc1ccc(C(=O)OCC)cc1	169 to 171 °C
CCCCOc1ccc(S(=O)(=O)C2(C(=O)O)CCN(Cc3ccc(OC)cc3)CC2)cc1	173 °C
CC12CCC(=O)C=C1CCC1C2CCC2(C)C(OC(=O)CBr)CCC12 (centres undefined)	144 to 145 °C

Next, values leading:

melting point	Structure (SMILES)
126 to 127 °C	Cc1ccc(CCC(=O)NCCCCN2CCN(C(c3ccccc3)c3ccccc3)CC2)cn1
267 to 270 °C	CCOC(=O)c1c[nH]c2c(F)c(C(C)=O)c(F)cc2c1=O
304 to 306 °C	COc1ccc(-c2ccc(C=C3SC(=O)NC3=O)cc2)cc1C12CC3CC(CC(C3)C1)C2
203 °C	COC(=O)C1=C(C)NC(C)=C(S(=O)(=O)c2ccccc2)C1c1ccccc1[N+](=O)[O-] (centres undefined)
42 to 42.9 °C	CCCCCCCCCCc1ccc2cc(OS(=O)(=O)C(F)(F)F)c(SC)cc2c1
190 °C	CCCCCCCCCCCCCCCCCCOC(=O)Nc1ccc(NC(=O)NS(=O)(=O)c2ccc(OC)cc2)cc1
121 to 123 °C	CSc1nc2nc(C)cc(-c3ccccc3)n2n1
97 to 99 °C	N#Cc1cn(CCl)cc1-c1ccccc1Cl
128 °C	CC1(C)COc2cc(Cl)c(Cl)cc2C(O)(c2ccccn2)C1 (centres undefined)
150 to 152 °C	COC(=O)C1=C(C)NC(O)=C(C(=O)OC)C1c1cccc([N+](=O)[O-])c1 (centres undefined)
234 to 235 °C	COc1cc(C(=O)Nc2ccc3c(c2)CCN(C)C3)cc(OC)c1OC
108 to 109 °C	CON=C(C)CN(C(=O)c1ccco1)c1c(C)cccc1C
64 to 65.6 °C	COC(=O)CCCCCOc1ccc(NC(=O)CCCCCOCc2ccccc2)cc1
160 to 161 °C	CCOC(=O)C1=C(N)NC(C)=CC1c1ccc(OC)cc1 (centres undefined)
68 to 69 °C	CCN(CC)Cc1cccc(OCCCNc2nc(N)nn2C)c1
108 to 109 °C	CO[C@H]1[C@H](N2CCCC2)c2cc(C#N)ccc2OC1(C)C (relative stereo)
232 to 233 °C	Cc1c(NC(=O)c2ccc(C#CC3(O)CCC3)cc2)ccc2cc(CNCC(C)(C)C)n(C)c12
156 °C	Cc1cc2cccc(N=C3SC[C@@H]4Cc5ccccc5CN34)c2cn1
100 to 125 °C	COc1cc2c(cc1Nc1ncc(Cl)c(Nc3cc(C#N)ccc3OC)n1)CCN(CC(N)=O)CC2
118 to 119 °C	NS(=O)(=O)c1ccc(C2=C(c3ccc(F)cc3)CC3(CCC3)C2)cc1
140 to 144 °C	Cc1cc(Br)cnc1CCCCNc1ncc(Cc2ccn(Cc3ccccc3)c(=O)c2)c(=O)[nH]1
209 to 211 °C	Cn1ccc(C(=O)c2sc(NC(=O)c3ccncc3)nc2-c2ccco2)c1
132 to 133 °C	O=C(O)C1Cc2cc(CCNS(=O)(=O)c3ccccc3)ccc2O1 (centres undefined)
196 to 197 °C	CCOc1nc2ncnn2c2c1cnc1c2cnn1CC
208 to 210 °C	NC(=O)c1nn(S(=O)(=O)c2ccccc2)c2ccccc12
153 to 154 °C	COCCOc1ccccc1-c1cc(Nc2cccc(S(C)(=O)=O)c2)ncn1
74 to 76 °C	C#CCn1c2c(c3ccccc31)CCCC2
